Experimental data: US11046660B2, “Compounds and their use as PDE4 activators” (MIRONID LIMITED, priority 2016, dated 2021)

Key:
full-length human PDE4D5 = target: T1, full-length human PDE4D5 (Homo sapiens, UniProt Q08499); experiment: PDE4D5 long form enzyme activation radio-assay (Experiment 1, Protocol A or B); type: biochemical; conditions: 30 μM, mean % increase in counts over basal activity
T1 construct: stably expressed the full-length human PDE4D5, PDE4A4 and PDE4B1 long isoforms; made in house; cytosol fraction of cell lysate
T1 sequence (Q08499 1-745 isoform Q08499-6): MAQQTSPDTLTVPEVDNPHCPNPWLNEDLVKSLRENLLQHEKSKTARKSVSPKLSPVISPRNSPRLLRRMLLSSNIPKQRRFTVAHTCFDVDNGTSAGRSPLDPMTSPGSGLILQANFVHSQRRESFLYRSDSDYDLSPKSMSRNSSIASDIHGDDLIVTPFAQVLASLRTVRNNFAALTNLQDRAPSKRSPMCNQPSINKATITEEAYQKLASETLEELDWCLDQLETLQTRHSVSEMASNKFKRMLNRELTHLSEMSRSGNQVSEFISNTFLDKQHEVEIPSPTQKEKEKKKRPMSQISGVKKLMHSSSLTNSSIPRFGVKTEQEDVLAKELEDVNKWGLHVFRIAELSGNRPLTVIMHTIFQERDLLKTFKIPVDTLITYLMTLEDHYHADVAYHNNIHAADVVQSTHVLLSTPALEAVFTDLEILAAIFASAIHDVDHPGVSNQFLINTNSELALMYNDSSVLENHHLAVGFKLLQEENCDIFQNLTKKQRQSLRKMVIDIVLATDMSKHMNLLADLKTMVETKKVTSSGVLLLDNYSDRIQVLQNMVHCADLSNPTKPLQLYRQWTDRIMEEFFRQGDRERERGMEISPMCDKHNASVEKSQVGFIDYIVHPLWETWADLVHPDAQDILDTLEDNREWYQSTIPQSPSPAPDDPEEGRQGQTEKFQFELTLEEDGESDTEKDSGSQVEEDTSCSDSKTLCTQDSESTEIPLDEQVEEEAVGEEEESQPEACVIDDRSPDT
Description: (§1) Experiment 1: Identification of PDE4 Long Form Activators of the Present Invention Using Full-Length Human PDE4 Isoforms PDE4D5, PDE4A4, PDE4B1 and PDE4B2
(§2) HEK 293 cells were transfected with pDEST™ PDE4 expression vectors using Lipofectamine LTX/Plus reagent (Invitrogen) as outlined by the manufacturer and clonal isolates expanded to obtain cell lines that stably expressed the full-length human PDE4D5, PDE4A4 and PDE4B1 long isoforms and the full length human PDE4B2 short isoform. These were called the HEK-PDE4D5, HEK-PDE4A4, HEK-PDE4B1 and HEK-PDE4B2 cell lines, respectively.
(§3) HEK-PDE4D5 cells were seeded out in 100 mm plates and incubated at 37° C. in an atmosphere of 5% CO2, 95% air. Cell lysates were prepared using KHEM buffer [50 mM KCl, 10 mM EGTA, 50 mM HEPES (pH 7.2), 1.92 mM MgCl2].
(§4) To prepare the cell lysates, the 100 mm plates containing the cells were placed on ice and washed with ice-cold PBS (phosphate buffered saline, pH 7.4). KHEM buffer (500 μl) was added to the cells. Cells were then scraped off the plate and triturated using a needle (BD Microlance™ 0.8, 40 mm). The lysed cells were then centrifuged at 2000 rpm for 10 minutes to remove cell debris and the supernatant (cell lysate containing recombinant PDE4D5) was transferred to a fresh tube and kept on ice.
(§5) The cell lysate containing recombinant PDE4D5 was transferred into a centrifuge tube and placed into an ultracentrifuge (BECKMAN COULTER) and spun at high speed (100,000 g) for 30 minutes at 4° C. The cytosol fraction was then collected and its protein amount determined using a BCA protein assay.
(§6) PDE assays were performed using a final concentration of 10 mM Tris/5 mM MgCl2 and 1 μM [^3H]-cAMP (Perkin Elmer) plus PDE4D5 cell lysate cytosol fraction, containing over-expressed PDE4D5, with and without test compound. Incubations were performed at 30° C. for 5 minutes. The samples were then placed in a boiling water bath for 2 minutes to denature the PDE enzyme, and returned to ice. Samples were allowed to cool for 10 min after which snake venom 5′-nucleotidase (25 μl, 1 mg/ml; Sigma) was added. The tubes were vortexed and incubated in a water bath at 30° C. for 10 minutes, to attain conversion of [^3H]-5′-AMP to [^3H]-adenosine, and then placed on ice. Dowex ion exchange resin (Sigma) prepared as a 1:1 Dowex: water stock was thoroughly re-suspended and diluted 2:1 with ethanol. The resulting Dowex suspension (0.4 ml) was added to each tube. Tubes were vortexed to mix and then incubated on ice for at least 15 minutes before a final vortex. The Dowex resin was pelleted by centrifugation at 13,000 g at 4° C. for 3 minutes and 150 μl of the supernatant was removed to an Eppendorf tube containing 1 ml of ScintiSafe3 scintillation fluid (Fisher). Tubes were vortexed thoroughly to mix and the recovered [^3H]-adenosine was quantified by measuring counts over 1 minute in a scintillation counter.
(§7) The % increase in counts in the presence of test compound at a particular concentration indicates the % increase in enzyme activity at that concentration.
(§8) PDE assays were performed in thin walled V-bottomed 96-well plates. The assays were performed at a final concentration of 10 mM Tris/5 mM MgCl2 plus PDE4D5 cell lysate cytosol fraction, containing over-expressed PDE4D5, with and without test compound. The lysate/compound mix were incubated together for 15 min at room temperature on an orbital shaker prior to addition of [^3H] cAMP (final concentration 1 μM [^3H] cAMP; Perkin Elmer) to a final volume of 50 μl per reaction. The reactions were then incubated for 10 minutes at 30° C., terminated by heating for 2 min at 95° C. and allowed to cool. Snake venom (12.5 μl of 1 mg/ml; Crotalus atrox, Sigma) was then added and the plates were agitated and incubated for a further 15 minutes at 30° C. […]

full-length human PDE4B2 = target: T2, full-length human PDE4B2 (Homo sapiens, UniProt Q07343); experiment: PDE4B2 short form enzyme activation radio-assay (Experiment 1, Protocol A or B); type: biochemical; conditions: 30 μM, mean % increase in counts over basal activity
T2 construct: and the full length human PDE4B2 short isoform; made in house; cytosol fraction of cell lysate
T2 sequence (Q07343 1-564 isoform Q07343-2): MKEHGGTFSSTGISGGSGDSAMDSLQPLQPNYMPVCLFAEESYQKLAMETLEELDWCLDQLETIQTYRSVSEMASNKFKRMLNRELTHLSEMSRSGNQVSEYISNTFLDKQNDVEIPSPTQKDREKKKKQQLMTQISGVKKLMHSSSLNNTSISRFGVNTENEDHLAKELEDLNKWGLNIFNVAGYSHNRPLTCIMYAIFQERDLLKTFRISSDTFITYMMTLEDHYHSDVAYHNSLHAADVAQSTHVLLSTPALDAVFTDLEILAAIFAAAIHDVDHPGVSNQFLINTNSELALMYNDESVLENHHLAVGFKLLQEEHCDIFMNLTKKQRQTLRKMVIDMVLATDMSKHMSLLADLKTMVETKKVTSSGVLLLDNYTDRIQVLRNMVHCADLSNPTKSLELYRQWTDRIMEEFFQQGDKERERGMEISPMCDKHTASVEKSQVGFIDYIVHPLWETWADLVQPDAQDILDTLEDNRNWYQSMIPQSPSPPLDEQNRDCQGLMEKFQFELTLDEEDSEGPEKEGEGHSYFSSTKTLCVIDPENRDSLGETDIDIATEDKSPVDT
Description: as §1, §2, §3, §4, §5, §6, §7, §8

MDCK cells [1] = experiment: Reduction of intracellular cAMP levels in forskolin-stimulated MDCK cells (Experiment 2); type: cell-based, canine; conditions: compound 10 μM for 10 min prior to forskolin 10 μM for 2 min; FIG. 2
Experimental: MDCK cells were seeded at 100,000 cells per well, and left to adhere overnight. The cells were then treated with the test compound (10 μM) for 10 minutes, prior to stimulation with forskolin (10 μM, Sigma) for 2 minutes. Media was aspirated, and hydrochloric acid (0.1M) was added to lyse the cells. The cAMP assay (Enzo Life Sciences) was performed according to the manufacturer's instructions.

MDCK cells [2] = experiment: Inhibition of in vitro cyst formation in 3D MDCK culture, PGE2-stimulated (Experiment 3, Protocol D); type: cell-based, canine; conditions: 300 nM PGE2-stimulated, FIG. 3
Description: In this study, the well-established three-dimensional (3D) MDCK cell model is used to investigate the effects of PDE4 long form activators on the formation of kidney cysts and evaluate their potential in the treatment of polycystic kidney diseases. 3D cysts are generated based on the method of Mao et al. (Mao, Z., Streets, A. J., Ong, A. C. M. Am. J. Physiol. Renal Physiol. 300(6): F1375-F1384, 2011), with some modifications.
Type 1 collagen (Invitrogen) is first prepared on ice by neutralising an acidic stock solution (3 mg/ml) with 17 mM NaOH and diluting it to 1 mg/ml with DMEM, supplemented with 2% (v/v) FBS, 2 mM L-glutamine, 1,000 U penicillin and 1,000 μg streptomycin (DMEM-2% FBS). […]
Phase-contrast images are obtained on the Motic microscope (×4 magnification). 8 images are taken per condition and the cyst diameter measured (up to 150 cyst measurements per well). Cyst spheroid volume is calculated using the formula 4/3πr^3 where r is the radius of the spheroid. A mean cyst volume is then calculated per well. The mean cyst volume and standard deviation between the duplicate wells is then calculated and expressed as a % Cyst Volume compared to the vehicle only (DMSO+300 nM PGE2) control wells.

activation at 30 µM (full-length human PDE4D5; Protocol A) [%]	activation at 30 µM (full-length human PDE4B2; Protocol A) [%]	activation at 30 µM (full-length human PDE4D5; Protocol B) [%]	activation at 30 µM (full-length human PDE4B2; Protocol B) [%]	Compound	intracellular cAMP levels in MDCK cells (in words) (MDCK cells [1])	cyst formation in 3D culture of MDCK cells (in words) (MDCK cells [2])
105	19.5	–	–	COC(=O)c1nc(-c2ccc(Cl)c(F)c2)nn1CC(=O)NCc1cccc(F)c1 [Example 1, Methyl 3-(4-chloro-3-fluorophenyl)-1-{[(3-fluorobenzyl)carbamoyl]methyl}-1H-1,2,4-triazole-5-carboxylate]	reduction in intracellular cAMP levels	–
–	–	101	-7.9	CNC(=O)c1nc(-c2ccc(Cl)c(F)c2)nn1CC(=O)NCc1ccc2[nH]ncc2c1 [Example 28, 3-(4-chloro-3-fluorophenyl)-1-({[(1H-indazol-5-yl)methyl]carbamoyl}methyl)-N-methyl-1H-1,2,4-triazole-5-carboxamide]	–	inhibition of cyst formation
